From US11780840B2 (Incyte Corporation, priority 2020, dated 2023)

Experiments:
[1] = biological target: T1, pseudo-kinase domain (JH2, amino-acids 536-812 with 3 surface mutations W659A, W777A, F794H) of human V617F mutant JAK2 (Homo sapiens, UniProt O60674, F794H/V617F/W659A/W777A); assay: JAK2 LanthaScreen JH2-V617F Binding Assay; settings: JAK2 JH2-V617F (0.26 nM), 50 nM Fluorescent JAK2-JH2 Tracer, 1 hour at 25° C.; read-out: JH2 BIND V617F
T1 construct: pseudo-kinase domain (JH2, amino-acids 536-812 with 3 surface mutations W659A, W777A, F794H); His (C); Avi (biotinylated) (C); purchased BPS Bioscience 79498; host or cells: baculovirus expression system
T1 sequence (O60674 536-812 V617F/W659A/W777A/F794H): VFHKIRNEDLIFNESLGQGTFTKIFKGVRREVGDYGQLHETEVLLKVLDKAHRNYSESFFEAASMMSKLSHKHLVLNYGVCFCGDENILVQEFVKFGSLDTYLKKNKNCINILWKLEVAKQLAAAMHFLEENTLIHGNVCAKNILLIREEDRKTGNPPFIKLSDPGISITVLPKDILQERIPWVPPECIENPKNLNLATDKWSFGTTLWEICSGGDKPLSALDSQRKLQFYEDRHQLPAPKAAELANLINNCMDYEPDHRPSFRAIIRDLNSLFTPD
Summary of the method: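 Biotinylated His-Avi-tagged JH2 protein was baculovirus-expressed and used at 0.26 nM. It was incubated with compound, 50 nM fluorescent JH2 tracer and 0.25 nM streptavidin-Tb for 1 h at 25 °C in pH 7.5 Tris buffer with MgCl2, BSA, DTT. Non-specific binding was defined with 2 mM ATP. IC50 came from four-parameter fits of TR-FRET signal.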

[2] = biological target: T2, pseudo-kinase domain (JH2, amino-acids 536-812 with 3 surface mutations W659A, W777A, F794H) of human Wild Type JAK2 (Homo sapiens, UniProt O60674, F794H/W659A/W777A); assay: JAK2 LanthaScreen JH2-WT Binding Assay; settings: JAK2 JH2-WT (0.145 nM), 50 nM Fluorescent JAK2-JH2 Tracer, 1 hour at 25° C.; read-out: JH2 BIND WT
T2 construct: pseudo-kinase domain (JH2, amino-acids 536-812 with 3 surface mutations W659A, W777A, F794H); His (C); Avi (biotinylated) (C); purchased BPS Bioscience 79463; host or cells: baculovirus expression system
T2 sequence (O60674 536-812 W659A/W777A/F794H): as the sequence (O60674 536-812 V617F/W659A/W777A/F794H) above, with F82V counted along it
Summary of the method: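 TR-FRET tracer displacement: IC50 from four-parameter dose-response fit. Reaction: compound, 0.145 nM biotinylated JH2 protein from baculovirus, 0.25 nM streptavidin-Tb and 50 nM tracer, 1 h at 25° C, 50 mM Tris pH 7.5 buffer. 2 mM ATP gave non-specific binding.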

[3] = biological target: T3, catalytic domain (JH1, amino acids 826-1132) of human JAK2 (Homo sapiens, UniProt O60674); assay: JAK2 LanthaScreen JH1 Binding Assay; settings: JAK2 JH1 (1.5 nM), 50 nM fluorescent JAK2-JH1 tracer, 2 hours at 25° C.; read-out: JH1 BIND
T3 construct: catalytic domain (JH1, amino acids 826-1132) of human JAK2; FLAG (N); purchased Carna Biosciences 08-445-20N; host or cells: baculovirus expression system
T3 sequence (O60674 826-1132): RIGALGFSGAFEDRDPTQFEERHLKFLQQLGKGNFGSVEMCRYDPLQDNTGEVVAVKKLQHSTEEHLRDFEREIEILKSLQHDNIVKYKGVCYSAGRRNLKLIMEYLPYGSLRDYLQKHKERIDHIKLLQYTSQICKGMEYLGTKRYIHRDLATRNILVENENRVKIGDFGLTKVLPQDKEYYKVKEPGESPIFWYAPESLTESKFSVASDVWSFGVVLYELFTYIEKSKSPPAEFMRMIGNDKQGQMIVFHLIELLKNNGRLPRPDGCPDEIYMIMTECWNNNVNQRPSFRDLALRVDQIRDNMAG
Summary of the method: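 FLAG-tagged, biotinylated JAK2 JH1 (aa 826-1132, baculovirus-expressed; 1.5 nM) incubated 2 h at 25° C with compounds, 50 nM fluorescent tracer and 0.5 nM Streptavidin-Tb in Tris pH 7.5 buffer with MgCl2, Brij-35, BSA, EGTA, glycerol, DTT. Nonspecific binding defined with 2 mM ATP; TR-FRET IC50 from four-parameter fit.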

Structure (SMILES) | IC50 [1] [nM] | IC50 [2] [nM] | IC50 [3] [nM]
Cn1cc(-c2[nH]c3ncc4c(c3c2-c2ccc3c(cnn3C)c2)n(C2CCOCC2)c(=O)n4C)cn1 [Example 48, 3-Methyl-8-(1-methyl-1H-indazol-5-yl)-7-(1-methyl-1H-pyrazol-4-yl)-1-(tetrahydro-2H-pyran-4-yl)-3,6-dihydroimidazo[4,5-d]pyrrolo[2,3-b]pyridin-2(1H)-one] | ≤ 10 | ≤ 10 | > 1000
Cn1c(=O)n(C2CCOCC2)c2c3c(-c4ccc(C5(C#N)CC5)cc4)c(-c4ccc(CN5CCC(S(C)(=O)=O)CC5)cc4)[nH]c3ncc21 [Example 49, 1-(4-(3-Methyl-7-(4-((4-(methylsulfonyl)piperidin-1-yl)methyl)phenyl)-2-oxo-1-(tetrahydro-2H-pyran-4-yl)-1,2,3,6-tetrahydroimidazo [4,5-d]pyrrolo[2,3-b]pyridin-8-yl)phenyl)cyclo-propane-1-carbonitrile] | ≤ 10 | ≤ 10 | 100 to 500
CC(C)n1c(=O)n(C)c2cnc3[nH]c(-c4cnn(CC(C)(C)O)c4)c(-c4ccc(C5(C#N)CC5)cc4)c3c21 [Example 50, 1-(4-(7-(1-(2-Hydroxy-2-methylpropyl)-1H-pyrazol-4-yl)-1-isopropyl-3-methyl-2-oxo-1,2,3,6-tetrahydroimidazo [4,5-d]pyrrolo[2,3-b]pyridin-8-yl)phenyl) cyclopropane-1-carbonitrile] | ≤ 10 | ≤ 10 | 500 to 1000
Cn1c(=O)n(C2CCOCC2)c2c3c(-c4ccc(C5(N6CCOCC6)CC5)cc4)c(-c4cnn(CC(C)(C)O)c4)[nH]c3ncc21 [Example 51, 7-(1-(2-Hydroxy-2-methylpropyl)-1H-pyrazol-4-yl)-3-methyl-8-(4-(1-morpholinocyclo-propyl)phenyl)-1-(tetrahydro-2H-pyran-4-yl)-3,6-dihydroimidazo[4,5-d]pyrrolo[2,3-b]pyridin-2(1H)-one] | ≤ 10 | ≤ 10 | > 1000
Cn1ncc2cc(-c3c(-c4ccc(CN5CCC(S(C)(=O)=O)CC5)cc4)[nH]c4ncc5c(c34)n(C3CCCC3)c(=O)n5C)ccc21 [Example 52, 1-Cyclopentyl-3-methyl-8-(1-methyl-1H-indazol-5-yl)-7-(4-((4-(methylsulfonyl)piperidin-1-yl)methyl)phenyl)-3,6-dihydroimidazo[4,5-d]pyrrolo[2,3-b]pyridin-2(1H)-one] | ≤ 10 | ≤ 10 | 100 to 500
Cn1ncc2cc(-c3c(-c4cnn(Cc5ccncc5)c4)[nH]c4ncc5c(c34)n(C3CCCC3)c(=O)n5C)ccc21 [Example 53, 1-Cyclopentyl-3-methyl-8-(1-methyl-1H-indazol-5-yl)-7-(1-(pyridin-4-ylmethyl)-1H-pyrazol-4-yl)-3,6-dihydroimidazo[4,5-d]pyrrolo[2,3-b]pyridin-2(1H)-one] | ≤ 10 | ≤ 10 | 100 to 500
COCCn1cc(-c2[nH]c3ncc4c(c3c2-c2ccc3c(cnn3C)c2)n(C2CCCC2)c(=O)n4C)cn1 [Example 54, 1-Cyclopentyl-7-(1-(2-methoxyethyl)-1H-pyrazol-4-yl)-3-methyl-8-(1-methyl-1H-indazol-5-yl)-3,6-dihydroimidazo[4,5-d]pyrrolo[2,3-b] pyridin-2(1H)-one] | ≤ 10 | ≤ 10 | 100 to 500
CC(C)n1c(=O)n(C)c2cnc3[nH]c(-c4cnn(CC(C)(C)O)c4)c(-c4ccc5c(cnn5C)c4)c3c21 [Example 55, 7-(1-(2-Hydroxy-2-methylpropyl)-1H-pyrazol-4-yl)-1-isopropyl-3-methyl-8-(1-methyl-1H-indazol-5-yl)-3,6-dihydroimidazo[4,5-d]pyrrolo[2,3-b] pyridin-2(1H)-one] | ≤ 10 | ≤ 10 | > 1000
Cn1ncc2cc(-c3c(-c4cnn(CC(F)F)c4)[nH]c4ncc5c(c34)n(C3CCCC3)c(=O)n5C)ccc21 [Example 56, 1-Cyclopentyl-7-(1-(2,2-difluoroethyl)-1H-pyrazol-4-yl)-3-methyl-8-(1-methyl-1H-indazol-5-yl)-3,6-dihydroimidazo[4,5-d]pyrrolo[2,3-b]pyridin-2(1H)-one] | ≤ 10 | ≤ 10 | 100 to 500
Cn1c(=O)n(C2CCCC2)c2c3c(-c4cc5cnccc5s4)c(-c4cnn(CC(F)F)c4)[nH]c3ncc21 [Example 57, 1-Cyclopentyl-7-(1-(2,2-difluoroethyl)-1H-pyrazol-4-yl)-3-methyl-8-(thieno[3,2-c]pyridin-2-yl)-3,6-dihydroimidazo[4,5-d]pyrrolo[2,3-b]pyridin-2(1H)-one] | ≤ 10 | ≤ 10 | 100 to 500
Cn1c(=O)n([C@H]2CCCOC2)c2c3c(-c4ccccc4)c(-c4ccc(CN5CCC(S(C)(=O)=O)CC5)cc4)[nH]c3ncc21 [Example 58, (S)-3-Methyl-7-(4-((4-(methylsulfonyl)piperidin-1-yl)methyl)phenyl)-8-phenyl-1-(tetrahydro-2H-pyran-3-yl)-3,6-dihydroimidazo[4,5-d]pyrrolo[2,3-b]pyridin-2(1H)-one] | 10 to 100 | ≤ 10 | 100 to 500
COc1ccc(-c2c(-c3cnn(Cc4ccncc4)c3)[nH]c3ncc4c(c23)n(C2CCCC2)c(=O)n4C)cc1 [Example 59, 1-Cyclopentyl-8-(4-methoxyphenyl)-3-methyl-7-(1-(pyridin-4-ylmethyl)-1H-pyrazol-4-yl)-3,6-dihydroimidazo[4,5-d]pyrrolo[2,3-b]pyridin-2(1H)-one] | ≤ 10 | ≤ 10 | 100 to 500
Cn1ncc2cc(-c3c(-c4ccncc4)[nH]c4ncc5c(c34)n(C3CCCC3)c(=O)n5C)ccc21 [Example 60, 1-Cyclopentyl-3-methyl-8-(1-methyl-1H-indazol-5-yl)-7-(pyridin-4-yl)-3,6-dihydroimidazo[4,5-d]pyrrolo[2,3-b]pyridin-2(1H)-one] | ≤ 10 | ≤ 10 | > 1000
Cn1ncc2cc(-c3c(-c4cccnc4)[nH]c4ncc5c(c34)n(C3CCCC3)c(=O)n5C)ccc21 [Example 61, 1-Cyclopentyl-3-methyl-8-(1-methyl-1H-indazol-5-yl)-7-(pyridin-3-yl)-3,6-dihydroimidazo[4,5-d]pyrrolo[2,3-b]pyridin-2(1H)-one] | ≤ 10 | ≤ 10 | > 1000
COc1ccc(-c2[nH]c3ncc4c(c3c2-c2ccc3c(cnn3C)c2)n(C(C)C)c(=O)n4C)cn1 [Example 62, 1-Isopropyl-7-(6-methoxypyridin-3-yl)-3-methyl-8-(1-methyl-1H-indazol-5-yl)-3,6-dihydroimidazo[4,5-d]pyrrolo[2,3-b]pyridin-2(1H)-one] | 10 to 100 | 10 to 100 | > 1000
COc1ccc(-c2[nH]c3ncc4c(c3c2-c2ccc3c(cnn3C)c2)n(C2CCOCC2)c(=O)n4C)cn1 [Example 63, 7-(6-Methoxypyridin-3-yl)-3-methyl-8-(1-methyl-1H-indazol-5-yl)-1-(tetrahydro-2H-pyran-4-yl)-3,6-dihydroimidazo[4,5-d]pyrrolo[2,3-b]pyridin-2(1H)-one] | ≤ 10 | ≤ 10 | > 1000
COc1ccc(-c2[nH]c3ncc4c(c3c2-c2ccc3c(cnn3C)c2)n(C2CCCC2)c(=O)n4C)cn1 [Example 64, 1-Cyclopentyl-7-(6-methoxypyridin-3-yl)-3-methyl-8-(1-methyl-1H-indazol-5-yl)-3,6-dihydroimidazo[4,5-d]pyrrolo[2,3-b]pyridin-2(1H)-one] | 10 to 100 | ≤ 10 | > 1000
CC(C)Oc1ccc(-c2[nH]c3ncc4c(c3c2-c2ccc3c(cnn3C)c2)n(C2CCCC2)c(=O)n4C)cn1 [Example 65, 1-Cyclopentyl-7-(6-isopropoxypyridin-3-yl)-3-methyl-8-(1-methyl-1H-indazol-5-yl)-3,6-dihydroimidazo[4,5-d]pyrrolo[2,3-b]pyridin-2(1H)-one] | 10 to 100 | 10 to 100 | > 1000
Cn1ncc2cc(-c3c(-c4ccc(OC5CCOCC5)nc4)[nH]c4ncc5c(c34)n(C3CCCC3)c(=O)n5C)ccc21 [Example 66, 1-Cyclopentyl-3-methyl-8-(1-methyl-1H-indazol-5-yl)-7-(6-((tetrahydro-2H-pyran-4-yl)oxy)pyridin-3-yl)-3,6-dihydroimidazo[4,5-d]pyrrolo[2,3-b]pyridin-2(1H)-one] | 10 to 100 | 10 to 100 | > 1000
